Several values for one entry are separate records, joined by “and”; a condition that tells them apart may be missing. Equal entries are not always repeated. Where two headings read alike, the source gives them in different places.
What was measured:
GalN/endotoxin hepatitis [1] = assay: GalN/endotoxin hepatitis, cytoprotective effect of the compounds; assay type: in vivo, albino mice of the NMRI strain; conditions: 200 μg/kg i.p. 1 hour before GalN/endotoxin; serum 9 hours later; n.s. not significant, *p ≤ 0.05, **p ≤ 0.01
Excerpt: In order to gain a deeper insight into the pharmacological properties of the compounds of the formula I, they have been examined for any cytoprotective effects they may have. The cytoprotective effect can be shown, inter alia, by the method described by A. Wendel and G. Tiegs in Biochemical Pharmacology 35 (1986), 2115-2118. This is based on the impairment of liver function as a consequence of sensitization of the liver due to administration of D-galactosamine and simultaneous treatment with endotoxins.
D-galactosamine (abbreviated to GalN) causes in animals liver damage which is regarded as a model for human viral hepatitis. The mechanism is assumed to be an accumulation of toxic galactosamine derivatives in the liver, which results in a diminution in the biosynthesis of macromolecules such as ribonucleic acids, proteins, glycoproteins and glycogens. These changes in the metabolism may in turn result in cell damage or even death of cells in the liver. The extent of liver damage can be determined by the increase in certain liver enzymes (sorbitol dehydrogenase SDH, serum glutamic-oxalic transaminase SGOT, serum glutamic-pyruvic transaminase SGPT) in the blood and by histology of the liver.
The test is carried out as follows.
Male albino mice of the NMRI strain are pretreated intraperitoneally with 200 μg/kg test substance and, 1 hour thereafter, treated intraperitoneally with 700 mg/kg D-galactosamine and 33 μg/kg endotoxins. 9 hours later, blood is removed by cardiac puncture, and the enzymatic activity in the blood serum is determined according to H. U. Bergmeyer [Methods in Enzymatic Analysis, 3rd edition (1985), volume III]. In this experimental model, the […] (Kupffer cells) actually function as immobilized macrophages.
The content of the liver enzymes SDH, SGOT and SGPT in the serum is expressed in international units (IU) for the enzyme activity; 1 IU=1 μmol of substrate converted/minute in one liter.

cutaneous necrosis = assay: skin flap test (action promoting healing); assay type: in vivo, Wistar rats; conditions: for Area of surviving skin in mm^2 / Area of the necrotic skin in mm^2 / Area of the skin flap / Area of surviving skin in % / Area of the necrotic skin in %: 1.5 ml i.p. daily for 8 days; for Area of surviving skin in mm^2 / Area of the necrotic skin in mm^2 / Area of the skin flap: 5% concentration; for Area of surviving skin in % / Area of the necrotic skin in %: % of skin flap; for Action of the compound in %: increase in area of surviving skin as percentage compared with control
Excerpt: Various pharmacological tests can be used to test for any therapeutically beneficial effect on damaged cells and tissues. An action promoting healing can be estimated and measured, in particular, by using the so-called skin flap test; the test is based on the development of a cutaneous necrosis and the inhibition thereof as a consequence of the action of the test substance.
Male Wistar rats of body weight 220-240 g in groups of 8 animals for each value which is to be determined are anesthetized with Nembutal (50 mg/kg, i.p.). A 1×3 cm skin flap is cut out, using a scalpel, from the back, is thoroughly washed and is returned to the original site and is sutured. The test animals are given the compound which is to be tested, in 5% concentration in aqueous solution (containing 0.2% ethanol and 1% polyethylene glycol of molecular weight 20,000--or Carbowax ®20; in each case 1.5 ml intraperitoneal), each day for 8 days; the control animals receive only the aqueous medium. Each day drawings are made of the skin flaps on the scale 1:1, with the necrotic sites being colored black. The animals are sacrificed after 8 days, and the drawings are evaluated using a Biotran apparatus, and the total area of the necrotic sites is measured in mm^2. The action promoting healing is expressed as the increase in the area of surviving skin as a percentage compared with the control.

GalN/endotoxin hepatitis [2] = conditions: *p ≤ 0.01, **p ≤ 0.001; indomethacin 9 mg/kg; diethylcarbamazine 78 mg/kg i.p. every 45 minutes between 0 and 6 hours; dexamethasone 200 μg/kg i.p.; cited from earlier work
acute toxicity testing = assay type: in vivo; design: Weight on May 10, 1988 / Weight on May 20, 1988: unit not given here
Procedure: Two groups each of ten mice were observed and weighed each day for 10 days. The animals in the control group each received intraperitoneal administration of 500 μl of a 5 mmol/l solution of Pluronic ® F 68 (manufactured by BASF Wyandotte, Erbsloh/FRG) in physiological saline, while those in the test group received 500 μl of a solution of 6 mg of the compound named above in 6 ml of Pluronic® F 68.

SMILES: CC/C=C\C/C=C\C/C=C\CCCCCCCC(=O)N[C@@H](CO[C@@H]1O[C@H](CO)[C@@H](O)[C@H](O)[C@H]1O)[C@H](O)/C=C/CCCCCCCCCCCCC [Glu(Linolen)-D-Sph]
- SDH (GalN/endotoxin hepatitis [1]): 2280 ± 355 IU/liter
- SGOT (GalN/endotoxin hepatitis [1]): 940 ± 170 IU/liter
- SGPT (GalN/endotoxin hepatitis [1]): 3350 ± 630 IU/liter
- Area of surviving skin in mm^2 (cutaneous necrosis): 107.4 ± 27.3 mm^2
- Area of the necrotic skin in mm^2 (cutaneous necrosis): 184.1 ± 28.9 mm^2
- Area of the skin flap (cutaneous necrosis): 291.5 ± 5.5 mm^2
- Area of surviving skin in % (cutaneous necrosis): 37.2%
- Area of the necrotic skin in % (cutaneous necrosis): 62.8%
- Action of the compound in % (cutaneous necrosis): +144.7%

SMILES: CCN(CC)C(=O)N1CCN(C)CC1 [Diethylcarbamazine]
- SGOT (GalN/endotoxin hepatitis [2]): 270 ± 90
- SGPT (GalN/endotoxin hepatitis [2]): 290 ± 180

SMILES: CCCCCCCCCCCCCC=CC(O)C(COC1OC(CO)C(O)C(O)C1O)NC(=O)CCCCCCCCCCCCCCC [Gal(Pal)-D-Sph]
- SDH (GalN/endotoxin hepatitis [1]): 2400 ± 2800 IU/liter
- SGOT (GalN/endotoxin hepatitis [1]): 1030 ± 1150 IU/liter
- SGPT (GalN/endotoxin hepatitis [1]): 2990 ± 3510 IU/liter
- Area of surviving skin in mm^2 (cutaneous necrosis): 191.8 ± 18.9 mm^2
- Area of the necrotic skin in mm^2 (cutaneous necrosis): 81.4 ± 18.5 mm^2
- Area of the skin flap (cutaneous necrosis): 273.3 ± 5.2 mm^2
- Area of surviving skin in % (cutaneous necrosis): 70.2%
- Area of the necrotic skin in % (cutaneous necrosis): 29.8%
- Action of the compound in % (cutaneous necrosis): +31.2%

SMILES: COc1ccc2c(c1)c(CC(=O)O)c(C)n2C(=O)c1ccc(Cl)cc1 [Indomethacin]
- SGOT (GalN/endotoxin hepatitis [2]): 480 ± 475
- SGPT (GalN/endotoxin hepatitis [2]): 730 ± 1,040

SMILES: CC/C=C\C/C=C\C/C=C\CCCCCCCC(=O)N[C@@H](CO[C@@H]1O[C@H](CO)[C@@H](O[C@@H]2O[C@H](CO)[C@H](O)[C@H](O)[C@H]2O)[C@H](O)[C@H]1O)[C@H](O)/C=C/CCCCCCCCCCCCC [Lac(Linolen)-D-Sph, (2S,3R,4E)-1-[4-0-(β-D-Galactopyranosyl)-β-D-glucopyranosyloxy-oxy]-2-[(9Z,12Z,15Z)-9,12,15-octadecatrienoylamino]-4-octadecen-3-ol]
- SDH (GalN/endotoxin hepatitis [1]): 290 ± 250 IU/liter
- SGOT (GalN/endotoxin hepatitis [1]): 124 ± 55 IU/liter
- SGPT (GalN/endotoxin hepatitis [1]): 230 ± 76 IU/liter
- Area of surviving skin in mm^2 (cutaneous necrosis): 195.9 ± 35.5 mm^2
- Area of the necrotic skin in mm^2 (cutaneous necrosis): 128.1 ± 34.2 mm^2
- Area of the skin flap (cutaneous necrosis): 324.0 ± 10.0 mm^2
- Area of surviving skin in % (cutaneous necrosis): 60.4%
- Area of the necrotic skin in % (cutaneous necrosis): 39.6%
- Action of the compound in % (cutaneous necrosis): +22.0%

SMILES: CCCCCCCCCCCCC/C=C/[C@H](O)[C@@H](CO[C@@H]1O[C@H](CO)[C@@H](O[C@@H]2O[C@H](CO)[C@H](O)[C@H](O)[C@H]2O)[C@H](O)[C@H]1O)NC(=O)CCCCCCCCCCCCCCC [Lac(Pal)-L-Sph, (2R,3S,4E)-1-[4-0-(8-D-galactopyranosyl) -β-D-gluco-pyranosyloxy]-2-hexadecanoylamino-4-octadecen-3-ol]
- special reactions immediately after the injection (acute toxicity testing; about 20 mg/kg i.p.): nor were any special reactions immediately after the injection
- toxic signs (acute toxicity testing; about 20 mg/kg i.p., during the experiment and days which followed): no toxic signs
- weight gain versus control group (acute toxicity testing; about 20 mg/kg i.p., test versus control group): strictly comparable in respect of weight gain
- mortality (acute toxicity testing; mouse, in vivo): No mortality
- Weight on May 20, 1988 (acute toxicity testing; test group, individual animals, 10 days, about 20 mg/kg i.p.): 35.7 and 33.0 and 35.0 and 34.9 and 34.4 and 39.9 and 28.8 and 34.0 and 30.5 and 31.9
- Weight difference (acute toxicity testing; test group, individual animals, May 10 to May 20, about 20 mg/kg i.p.): +6.6 g and +6.0 g and +7.3 g and +7.0 g and +7.7 g and +9.7 g and +4.3 g and +6.4 g and +3.9 g and +5.6 g
- Weight on May 10, 1988 (acute toxicity testing; test group, individual animals, before/at i.p. dosing (about 20 mg/kg)): 29.1 and 27.0 and 27.7 and 27.9 and 26.7 and 30.2 and 24.5 and 27.6 and 26.6 and 26.3
- SDH (GalN/endotoxin hepatitis [1]): 80 IU/liter
- SGOT (GalN/endotoxin hepatitis [1]): 120 ± 80 IU/liter
- SGPT (GalN/endotoxin hepatitis [1]): 80 ± 20 IU/liter
- Area of surviving skin in mm^2 (cutaneous necrosis): 182.8 ± 11.3 mm^2
- Area of the necrotic skin in mm^2 (cutaneous necrosis): 112.7 ± 13.3 mm^2
- Area of the skin flap (cutaneous necrosis): 295.5 ± 6.4 mm^2
- Area of surviving skin in % (cutaneous necrosis): 62.3%
- Area of the necrotic skin in % (cutaneous necrosis): 37.7%
- Action of the compound in % (cutaneous necrosis): +43.9%

SMILES: CCCCCCCCCCCCC/C=C/[C@@H](O)[C@H](CO[C@@H]1O[C@H](CO)[C@@H](O[C@@H]2O[C@H](CO)[C@H](O)[C@H](O)[C@H]2O)[C@H](O)[C@H]1O)NC(=O)CCCCCCCCCCCCCCC [Lac(Pal)-D-Sph, (2S,3R,4E)-1-[4-0-(8-D-galactopyranosyl) -β-D-glucopyranosyloxy]-2-hexadecanoylamino-4-octadecen-3-ol]
- SDH (GalN/endotoxin hepatitis [1]): 80 ± 30 IU/liter
- SGOT (GalN/endotoxin hepatitis [1]): 80 ± 20 IU/liter
- SGPT (GalN/endotoxin hepatitis [1]): 110 ± 70 IU/liter
- Area of surviving skin in mm^2 (cutaneous necrosis): 197.6 ± 12.6 mm^2
- Area of the necrotic skin in mm^2 (cutaneous necrosis): 113.2 ± 13.0 mm^2
- Area of the skin flap (cutaneous necrosis): 310.9 ± 6.9 mm^2
- Area of surviving skin in % (cutaneous necrosis): 63.8%
- Area of the necrotic skin in % (cutaneous necrosis): 36.2%
- Action of the compound in % (cutaneous necrosis): +47.3%

SMILES: CCCCCCCCCCCCC/C=C/[C@@H](O)[C@H](CO[C@@H]1O[C@H](CO)[C@@H](O)[C@H](O)[C@H]1O)NC(=O)CCCCCCCCCCCCCCC [Glu(Pal)-D-Sph]
- SDH (GalN/endotoxin hepatitis [1]): 4720 ± 2320 IU/liter
- SGOT (GalN/endotoxin hepatitis [1]): 910 ± 425 IU/liter
- SGPT (GalN/endotoxin hepatitis [1]): 3950 ± 2260 IU/liter
- Area of surviving skin in mm^2 (cutaneous necrosis): 144.1 ± 9.1 mm^2
- Area of the necrotic skin in mm^2 (cutaneous necrosis): 113.3 ± 10.6 mm^2
- Area of the skin flap (cutaneous necrosis): 257.4 ± 6.2 mm^2
- Area of surviving skin in % (cutaneous necrosis): 56.2%
- Area of the necrotic skin in % (cutaneous necrosis): 43.8%
- Action of the compound in % (cutaneous necrosis): +30.1%

SMILES: CCCCCCCCCCCCCC=CC(O)C(COC1OC(CO)C(O)C(O)C1O)NC(=O)CCCCCCCCCCCCCCC [Glu(Pal)-L-Sph]
- SDH (GalN/endotoxin hepatitis [1]): 1690 ± 1680 IU/liter
- SGOT (GalN/endotoxin hepatitis [1]): 410 ± 360 IU/liter
- SGPT (GalN/endotoxin hepatitis [1]): 1470 ± 1460 IU/liter
- Area of surviving skin in mm^2 (cutaneous necrosis): 178.6 ± 16.8 mm^2
- Area of the necrotic skin in mm^2 (cutaneous necrosis): 85.8 ± 14.7 mm^2
- Area of the skin flap (cutaneous necrosis): 264.4 ± 2.6 mm^2
- Area of surviving skin in % (cutaneous necrosis): 67.3%
- Area of the necrotic skin in % (cutaneous necrosis): 32.7%
- Action of the compound in % (cutaneous necrosis): +55.8%

SMILES: C[C@@H]1C[C@H]2[C@@H]3CCC4=CC(=O)C=C[C@]4(C)[C@@]3(F)[C@@H](O)C[C@]2(C)[C@@]1(O)C(=O)CO [Dexamethasone]
- SGOT (GalN/endotoxin hepatitis [2]): 140 ± 100
- SGPT (GalN/endotoxin hepatitis [2]): 100 ± 60

SMILES: CCCCC/C=C\C/C=C\C/C=C\C/C=C\CCCC(=O)N[C@@H](CO[C@@H]1O[C@H](CO)[C@@H](O[C@@H]2O[C@H](CO)[C@H](O)[C@H](O)[C@H]2O)[C@H](O)[C@H]1O)[C@H](O)/C=C/CCCCCCCCCCCCC [Lac(Arach)-D-Sph]
- SDH (GalN/endotoxin hepatitis [1]): 355 ± 425 IU/liter
- SGOT (GalN/endotoxin hepatitis [1]): 280 ± 260 IU/liter
- SGPT (GalN/endotoxin hepatitis [1]): 290 ± 210 IU/liter
- Area of surviving skin in mm^2 (cutaneous necrosis): 211.6 ± 33.3 mm^2
- Area of the necrotic skin in mm^2 (cutaneous necrosis): 111.5 ± 25.8 mm^2
- Area of the skin flap (cutaneous necrosis): 323.1 ± 10.4 mm^2
- Area of surviving skin in % (cutaneous necrosis): 64.1%
- Area of the necrotic skin in % (cutaneous necrosis): 35.8%
- Action of the compound in % (cutaneous necrosis): +36.8%
